Source: ChEMBL document CHEMBL1201862, “PubChem BioAssay data set” (2004)
Calls of active or inactive are those of the source.

Assays:
[1] = test system: Streptococcus sp. 'group A'; test: growth inhibition of control SK(-) GAS strain, dose response, counter-screen for streptokinase expression inhibitor project, luminescence, kanamycin, BacTiterGlo, confirmation (AID 1900); format: functional, organism-based
Streptococcus = test: Group A Streptococcus viability loss, dose response, counter-screen for streptokinase expression inhibitor project, luminescence, BacTiterGlo (AID 1915); format: functional, organism-based;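 note: potency for reduction of bacterial viability or growth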
CAAX prenyl protease 2 = molecular target: T1, CAAX prenyl protease 2 (Homo sapiens, UniProt Q9Y256); test: human Rce1 protease inhibitors, dose response, biochemical, yeast membranes, quenched-peptide fluorescence, cherry-pick (AID 588849)
T1 sequence (Q9Y256 whole entry): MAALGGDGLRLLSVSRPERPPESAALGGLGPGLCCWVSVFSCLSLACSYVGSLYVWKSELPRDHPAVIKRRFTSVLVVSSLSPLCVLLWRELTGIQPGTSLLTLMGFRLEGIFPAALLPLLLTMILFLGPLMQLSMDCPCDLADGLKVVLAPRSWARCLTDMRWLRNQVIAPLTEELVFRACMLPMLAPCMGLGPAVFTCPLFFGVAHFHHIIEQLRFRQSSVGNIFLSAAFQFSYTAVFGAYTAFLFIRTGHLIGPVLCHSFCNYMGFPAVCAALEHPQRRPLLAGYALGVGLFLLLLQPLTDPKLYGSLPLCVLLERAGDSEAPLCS

[2] = inhibitors of firefly luciferase expression or activity, dose response, H4 neuroglioma cells, luminescence (AID 1990); format: functional, cell-based
[3] = insulin promoter down-regulators in MIN6 cells, imaging, high-content screening, mouse beta cells (AID 1628); format: functional
[4] = Luminescence Cell-Based Dose Response HTS to Identify Inhibitors of 5'UTR Stem-Loop Driven Prion Protein mRNA Translation in H4 Neuroglioblastoma Cells. [Related pubchem assays: 1827 (Project Summary), 1813 (Primary HTS)]; format: functional
[5] = cytotoxicity in MIN6 insulinoma cells, dose response, cytotoxicity control, cell-based, mouse insulinoma (AID 2122); format: functional;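 note: confirmatory high-throughput counterscreen run to flag cytotoxic compounds; mouse MIN-6 beta cells carrying an insulin promoter eGFP reporter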
[6] = inhibitors of SNCA 5'UTR-driven reporter translation, confirmation, H4 neuroglioma cells, luminescence (AID 1988); format: functional, cell-based
[7] = inhibitors of intracellular T. cruzi replication, confirmation, NIH3T3 host cells, beta-gal luminescence (AID 2044); format: functional, cell-based;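 note: intracellular parasites grown in NIH/3T3 mouse fibroblasts as host cells; luminescent beta-galactosidase reporter signal from transgenic T. cruzi replicating inside host cells; inhibitors lower the luminescence signal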
[8] = cytotoxicity toward NIH3T3 fibroblasts, dose response, counter-screen, cell-based, ATP luminescence, mouse fibroblasts (AID 2010); format: functional;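 note: cells exposed to compound for about 90 hours before reading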
Vero = Vero cell cytotoxicity, cytotoxicity control for flavivirus capping enzyme inhibitors (AID 588742); format: functional; conditions: Chlorocebus sabaeus
Genome polyprotein = Genome polyprotein (dengue virus type 2, UniProt P29990); test: Dengue-2 NS5 methyltransferase inhibitors, primary screen, biochemical, confirmation dose response (AID 588689); format: functional
[9] = molecular target: T2, Polyadenylate-binding protein 1 (Homo sapiens, UniProt P11940); test: PABP1 MLLE–PAM2 interaction inhibitors, dose response, miRNA deadenylation inhibitor project, biochemical, fluorescence polarization, Cy5-PAM2 peptide, secondary (AID 602260); format: functional; conditions: read-out: IC50_Mean
[10] = molecular target: T2, Polyadenylate-binding protein 1; test: PABP1 MLLE–PAM2 binding inhibitor potency, dose response, biochemical, fluorescence polarization, FITC-PAM2 peptide (AID 602259); format: functional; conditions: read-out: IC50_Mean
Cytochrome P450 1A2 = molecular target: T3, Cytochrome P450 1A2 (Homo sapiens, UniProt P05177);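 note: PubChem cytochrome P450 panel assay, CYP1A2 panel member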
T3 sequence (P05177 whole entry): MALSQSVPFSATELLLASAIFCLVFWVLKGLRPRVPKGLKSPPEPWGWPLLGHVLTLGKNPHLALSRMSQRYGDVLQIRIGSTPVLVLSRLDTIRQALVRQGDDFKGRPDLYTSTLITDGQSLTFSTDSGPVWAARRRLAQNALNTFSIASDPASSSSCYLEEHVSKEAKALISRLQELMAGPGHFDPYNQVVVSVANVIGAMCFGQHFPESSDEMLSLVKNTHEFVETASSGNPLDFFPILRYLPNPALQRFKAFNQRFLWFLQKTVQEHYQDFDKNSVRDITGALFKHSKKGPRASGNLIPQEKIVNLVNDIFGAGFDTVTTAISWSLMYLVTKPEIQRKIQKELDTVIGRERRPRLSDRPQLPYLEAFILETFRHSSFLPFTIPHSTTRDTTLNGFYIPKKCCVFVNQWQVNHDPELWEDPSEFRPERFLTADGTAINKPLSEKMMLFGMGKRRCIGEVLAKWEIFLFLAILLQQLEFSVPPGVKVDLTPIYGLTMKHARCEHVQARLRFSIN

Cytochrome P450 2C9 = Cytochrome P450 2C9 (Homo sapiens, UniProt P11712)
Cytochrome P450 3A4 = Cytochrome P450 3A4 (Homo sapiens, UniProt P08684);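 note: CYP3A4 tested as one member of a cytochrome P450 panel screen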
BJ [11] = test: cytotoxicity toward BJ-TERT fibroblasts, dose response, cell-based, RAS-independent, luminescence (AID 1933); format: functional; conditions: Homo sapiens
BJ [12] = test: cells; format: functional, cell-based; conditions: Homo sapiens
[13] = molecular target: Luciferin 4-monooxygenase (Photinus pyralis, UniProt P08659); test: firefly luciferase enzyme inhibitors, dose response, biochemical, luminescence (AID 1891)
[14] = Luminescence Cell-Based Dose Confirmation HTS to Identify Inhibitors of Platelet Dense Granule Release. [Related pubchem assays: 1663 (Primary HTS), 1678 (Summary of Project)]; format: functional
BJ [15] = test: cytotoxicity toward BJ-TERT-LT-ST fibroblasts, dose response, cell-based, RAS-independent, luminescence (AID 1935); format: functional; conditions: Homo sapiens;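 note: BJ fibroblasts immortalized with TERT plus LT and ST oncogenes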
[16] = cytotoxicity toward DRD oncogenic fibroblasts, dose response, cell-based, non-viral oncogenic, luminescence (AID 1934); format: functional; conditions: Homo sapiens
HEK293 = test: inhibitors of LMP1-driven NF-kB reporter, dose response, cell-based, HEK293, luciferase, cherry-pick (AID 588343); format: functional; conditions: Homo sapiens

Chain of Cytochrome P450 2C9 (P11712 whole entry): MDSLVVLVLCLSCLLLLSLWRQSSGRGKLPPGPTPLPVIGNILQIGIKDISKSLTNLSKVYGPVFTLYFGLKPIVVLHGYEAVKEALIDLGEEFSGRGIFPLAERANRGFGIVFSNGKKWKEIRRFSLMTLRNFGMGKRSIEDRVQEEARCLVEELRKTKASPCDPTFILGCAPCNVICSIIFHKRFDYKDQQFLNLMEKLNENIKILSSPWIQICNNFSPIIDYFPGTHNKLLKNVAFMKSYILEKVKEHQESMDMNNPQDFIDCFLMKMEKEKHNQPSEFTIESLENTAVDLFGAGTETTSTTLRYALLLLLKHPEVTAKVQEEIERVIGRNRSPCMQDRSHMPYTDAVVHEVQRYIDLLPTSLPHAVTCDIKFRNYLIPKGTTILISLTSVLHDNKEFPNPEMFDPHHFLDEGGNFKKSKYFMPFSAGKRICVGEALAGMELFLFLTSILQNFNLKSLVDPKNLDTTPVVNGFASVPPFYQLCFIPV
T2 sequence (P11940 whole entry): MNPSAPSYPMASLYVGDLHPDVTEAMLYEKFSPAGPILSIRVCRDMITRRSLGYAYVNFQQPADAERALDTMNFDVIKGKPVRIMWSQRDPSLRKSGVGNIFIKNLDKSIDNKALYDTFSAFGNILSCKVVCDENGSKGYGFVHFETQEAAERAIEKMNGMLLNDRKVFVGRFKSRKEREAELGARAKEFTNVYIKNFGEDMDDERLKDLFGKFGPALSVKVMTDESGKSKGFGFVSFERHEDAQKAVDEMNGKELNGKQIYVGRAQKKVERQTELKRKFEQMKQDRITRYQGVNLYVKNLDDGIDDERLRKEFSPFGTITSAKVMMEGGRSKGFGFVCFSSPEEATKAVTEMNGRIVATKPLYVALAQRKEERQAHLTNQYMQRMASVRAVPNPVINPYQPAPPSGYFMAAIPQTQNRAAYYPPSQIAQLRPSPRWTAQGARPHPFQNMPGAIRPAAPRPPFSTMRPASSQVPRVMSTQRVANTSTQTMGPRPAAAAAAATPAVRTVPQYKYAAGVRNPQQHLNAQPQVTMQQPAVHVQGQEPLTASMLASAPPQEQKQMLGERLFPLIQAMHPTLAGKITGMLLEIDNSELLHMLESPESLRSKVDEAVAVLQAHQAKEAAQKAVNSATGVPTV
Chain of Genome polyprotein (P29990 2492-3391 limits assumed): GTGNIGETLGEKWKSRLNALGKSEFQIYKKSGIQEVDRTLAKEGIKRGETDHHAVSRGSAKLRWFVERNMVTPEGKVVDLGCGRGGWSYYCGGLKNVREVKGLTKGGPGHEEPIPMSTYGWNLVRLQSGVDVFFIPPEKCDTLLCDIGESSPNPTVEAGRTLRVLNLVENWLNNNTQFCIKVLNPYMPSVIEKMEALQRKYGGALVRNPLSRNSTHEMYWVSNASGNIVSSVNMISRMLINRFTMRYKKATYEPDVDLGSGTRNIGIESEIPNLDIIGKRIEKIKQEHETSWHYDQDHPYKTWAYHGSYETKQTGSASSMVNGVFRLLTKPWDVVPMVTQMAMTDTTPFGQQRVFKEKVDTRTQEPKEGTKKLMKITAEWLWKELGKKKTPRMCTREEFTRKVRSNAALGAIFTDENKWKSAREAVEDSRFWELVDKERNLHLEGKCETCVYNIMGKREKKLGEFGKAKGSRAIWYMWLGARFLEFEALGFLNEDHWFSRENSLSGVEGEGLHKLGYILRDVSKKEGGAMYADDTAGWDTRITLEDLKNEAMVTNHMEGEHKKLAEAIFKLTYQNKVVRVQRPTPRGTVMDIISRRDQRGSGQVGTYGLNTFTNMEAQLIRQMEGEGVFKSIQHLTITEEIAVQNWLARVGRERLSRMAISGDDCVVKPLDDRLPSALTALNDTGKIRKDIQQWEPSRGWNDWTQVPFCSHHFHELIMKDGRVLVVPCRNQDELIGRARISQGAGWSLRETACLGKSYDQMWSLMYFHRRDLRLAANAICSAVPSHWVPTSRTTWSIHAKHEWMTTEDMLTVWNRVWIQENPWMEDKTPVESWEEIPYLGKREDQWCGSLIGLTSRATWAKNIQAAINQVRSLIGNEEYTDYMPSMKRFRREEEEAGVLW
Chain of Cytochrome P450 3A4 (P08684 whole entry): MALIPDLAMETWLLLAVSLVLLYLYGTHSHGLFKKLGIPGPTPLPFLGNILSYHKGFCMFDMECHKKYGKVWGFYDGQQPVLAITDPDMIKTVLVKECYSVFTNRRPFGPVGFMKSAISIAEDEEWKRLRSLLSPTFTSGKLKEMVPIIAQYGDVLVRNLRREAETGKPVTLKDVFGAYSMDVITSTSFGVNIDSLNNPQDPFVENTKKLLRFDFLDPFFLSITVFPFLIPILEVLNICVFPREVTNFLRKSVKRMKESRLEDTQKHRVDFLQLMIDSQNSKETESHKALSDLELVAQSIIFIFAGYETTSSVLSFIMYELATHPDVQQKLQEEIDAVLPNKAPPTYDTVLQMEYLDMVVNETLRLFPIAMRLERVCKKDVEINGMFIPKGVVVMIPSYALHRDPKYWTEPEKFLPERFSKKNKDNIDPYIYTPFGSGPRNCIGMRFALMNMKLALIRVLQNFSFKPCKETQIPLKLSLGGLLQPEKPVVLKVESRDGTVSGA
Chain of Luciferin 4-monooxygenase (P08659 whole entry): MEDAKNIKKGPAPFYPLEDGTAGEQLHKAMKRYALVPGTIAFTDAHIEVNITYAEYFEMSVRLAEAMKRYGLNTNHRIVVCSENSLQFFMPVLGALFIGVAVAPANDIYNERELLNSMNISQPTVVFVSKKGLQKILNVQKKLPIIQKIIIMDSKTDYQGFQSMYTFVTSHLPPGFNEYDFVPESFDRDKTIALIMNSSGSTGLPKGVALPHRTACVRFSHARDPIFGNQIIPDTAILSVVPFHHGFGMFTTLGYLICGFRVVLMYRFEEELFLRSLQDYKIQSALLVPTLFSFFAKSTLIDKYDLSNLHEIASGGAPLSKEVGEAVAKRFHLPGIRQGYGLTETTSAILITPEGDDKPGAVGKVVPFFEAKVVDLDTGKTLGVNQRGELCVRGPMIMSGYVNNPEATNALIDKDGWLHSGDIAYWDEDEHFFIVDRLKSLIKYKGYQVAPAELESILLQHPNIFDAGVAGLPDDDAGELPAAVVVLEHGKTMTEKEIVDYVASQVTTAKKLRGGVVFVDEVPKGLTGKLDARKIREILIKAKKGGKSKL

SMILES: C[C@H]1COc2c(N3CCN(C)CC3)c(F)cc3c(=O)c(C(=O)O)cn1c23 [LEVOFLOXACIN]
- EC50 [1]: 2.1 µM (active)
- EC50 (Streptococcus): 0.911 µM (active)
- AC50 (CAAX prenyl protease 2): 41 µM (active)

SMILES: O=C1c2ccc3c4c(ccc(c24)C(=O)N1CCCCO)C(=O)N(CCCCO)C3=O
- EC50 [2]: > 120 µM (not active)
- IC50 [3]: 2.96 µM (active)
- EC50 [4]: 13.6 µM (active)
- IC50 [5]: 1.99 µM (active)
- EC50 [6]: 3.4 µM (active)
- EC50 [7]: 2.25 µM (active)
- EC50 [8]: 4.23 µM (active)
- CC50 (Vero): 5.55 µM (active)
- IC50 (Genome polyprotein): > 100 µM (active)
- IC50 [9]: > 66 µM (inactive)
- IC50 [10]: 23.8 µM (inactive)

SMILES: CCOC(=O)c1c(C)c(C(=O)N2CCCCCC2)c(C)n1C
- AC50 (Cytochrome P450 1A2): 25.1 µM (inconclusive)
- AC50 (Cytochrome P450 2C9): inconclusive

SMILES: COCCCNC(=O)C1CCN(S(=O)(=O)N(CC(C)C)CC(C)C)CC1
- AC50 (Cytochrome P450 3A4): 22.4 µM (inconclusive)
- AC50 (Cytochrome P450 2C9): inconclusive

SMILES: Cn1c(/C=C/c2ccccc2)nc2ccccc21
- EC50 (BJ [11]): 10.8 µM (active)
- EC50 (BJ [12]): 7.95 µM (active)
- EC50 [13]: 1.09 µM (active)
- EC50 [14]: 1.89 µM (active)
- EC50 (BJ [15]): 18.9 µM (active)
- EC50 [16]: 8.49 µM (active)
- AC50 (HEK293): 3.81 µM (active)

SMILES: COc1ccc2[nH]c3c(N4CCN(Cc5ccc6c(c5)OCO6)CC4)ncnc3c2c1
- IC50 [3]: 2.79 µM (active)
- IC50 [5]: 2.58 µM (active)
